Key:
Staphylococcus aureus = assay: Antimicrobial activity against Staphylococcus aureus at 37 degC after 24 hrs by tube dilution method; assay type: functional; set-up: unit not given here
Bacillus subtilis = assay: Antimicrobial activity against Bacillus subtilis at 37 degC after 24 hrs by tube dilution method; assay type: functional; set-up: unit not given here
Escherichia coli = assay: Antimicrobial activity against Escherichia coli at 37 degC after 24 hrs by tube dilution method; assay type: functional; set-up: unit not given here
Candida albicans = assay: Antifungal activity against Candida albicans at 37 degC after 48 hrs by tube dilution method; assay type: functional; set-up: unit not given here
Aspergillus niger = assay: Antifungal activity against Aspergillus niger at 25 degC after 7 days by tube dilution method; assay type: functional; set-up: unit not given here
[1] = Octanol-water partition coefficient, log P of the compound; assay type: physicochemical

| Compound | -logMIC (Staphylococcus aureus) | -logMIC (Bacillus subtilis) | -logMIC (Escherichia coli) | -logMIC (Candida albicans) | -logMIC (Aspergillus niger) | logP [1] |
| --- | --- | --- | --- | --- | --- | --- |
| O=C(c1cccnc1)n1c(-c2cccc(Cl)c2)nc2ccccc21 | 1.79 | 1.5 | 1.8 | 1.73 | 1.43 | 4.7 |
| Clc1ccccc1-c1nc2ccccc2[nH]1 | 1.4 | 1.49 | 1.49 | 1.26 | 1.26 | 3.63 |
| O=C(O)c1ccccc1-c1nc2ccccc2n1C(=O)c1cccnc1 | 1.44 | 1.44 | 1.44 | 1.74 | 1.44 | 4.13 |
| Clc1cccc(-c2nc3ccccc3[nH]2)c1 | 1.49 | 1.49 | 1.65 | 1.26 | 1.36 | 3.63 |
| COc1ccccc1-c1nc2ccccc2n1C(=O)c1cccnc1 | 1.42 | 1.42 | 1.6 | 1.72 | 1.42 | 3.93 |
| c1ccc(-c2nc3ccccc3[nH]2)cc1 | 1.46 | 1.68 | 1.72 | 1.49 | 1.49 | 3.11 |
| O=C(c1cccnc1)n1c(-c2ccc(O)cc2)nc2ccccc21 | 1.7 | 1.57 | 1.8 | 1.7 | 1.4 | 3.89 |
| O=[N+]([O-])c1cccc(-c2nc3ccccc3[nH]2)c1 | 1.47 | 1.72 | 1.41 | 1.58 | 1.58 | 3.07 |
| O=C(c1cccnc1)n1c(-c2ccccc2[N+](=O)[O-])nc2ccccc21 | 1.5 | 1.5 | 1.5 | 1.74 | 1.44 | 4.13 |
| OC(Cn1cncn1)(Cn1cncn1)c1ccc(F)cc1F [FLUCONAZOLE] |  |  | 3.33 | 2.64 | 2.64 |  |
| O=C(c1cccnc1)n1c(-c2ccc([N+](=O)[O-])cc2)nc2ccccc21 | 1.44 | 1.44 | 1.44 | 1.74 | 1.44 | 4.13 |
| O=C(c1cccnc1)n1c(-c2ccc(Cl)cc2)nc2ccccc21 | 1.73 | 1.43 | 1.73 | 1.73 | 1.43 | 4.7 |
| Oc1ccc(-c2nc3ccccc3[nH]2)cc1 | 1.53 | 1.79 | 1.7 | 1.43 | 1.33 | 2.83 |
| Clc1ccc(-c2nc3ccccc3[nH]2)cc1 | 1.66 | 1.51 | 1.66 | 1.56 | 1.4 | 3.63 |
| O=C(c1cccnc1)n1c(-c2cccc([N+](=O)[O-])c2)nc2ccccc21 | 1.44 | 1.44 | 1.44 | 1.74 | 1.44 | 4.13 |
| O=[N+]([O-])c1ccc(-c2nc3ccccc3[nH]2)cc1 | 1.01 | 1.78 | 1.2 | 1.58 | 1.58 | 3.07 |
| O=[N+]([O-])c1ccccc1-c1nc2ccccc2[nH]1 | 1.17 | 1.73 | 1.35 | 1.58 | 1.58 | 3.07 |
| COc1ccccc1-c1nc2ccccc2[nH]1 | 1.5 | 1.71 | 1.65 | 1.25 | 1.35 | 2.86 |
| O=C(c1cccnc1)n1c(-c2ccccc2Cl)nc2ccccc21 | 1.73 | 1.43 | 1.65 | 1.73 | 1.43 | 4.7 |
| O=C(O)c1cn(C2CC2)c2cc(N3CCNCC3)c(F)cc2c1=O [CIPROFLOXACIN] | 3.33 | 3.33 |  |  |  |  |
| O=C(O)c1ccccc1-c1nc2ccccc2[nH]1 | 1.5 | 1.7 | 1.7 | 1.48 | 1.28 | 2.81 |

Reference: ChEMBL document CHEMBL1138554, “Synthesis and QSAR evaluation of 2-(substituted phenyl)-1H-benzimidazoles and [2-(substituted phenyl)-benzimidazol-1-yl]-pyridin-3-yl-methanones” (Eur J Med Chem, 2009)
